Assay results from patent publication US20210069295A1, “GALECTINS CONTROL MTOR IN RESPONSE TO ENDOMEMBRANE DAMAGE AND PROVIDE A MECHANISM AND TARGET FOR THE TREATMENT OF AUTOPHAGY-RELATED DISEASES” (STC. UNM, priority 2017, published 2021).
Peptide text beside a SMILES is read from it.

Tests used:
[1] = test system: mTOR and RagA; experiment: Co-IP of FLAG-tagged galectins with endogenous mTOR or RagA in HEK293T cells; type: binding; details: HEK293T overexpressing FLAG-tagged galectins
Description: (A) Analysis of the puncta formation of galectins in response to GPN. HeLa cells overexpressing YFP-fused with the indicated galectins were treated with 100 μM GPN or without (Ctrl) in full medium for 1 h and galectin puncta were quantified by HC. […] White masks, algorithm defined cell boundaries (primary objects); green masks, computer-identified galectins puncta (target objects). Data, means±SEM, n≥3 independent experiments (500 primary objects counted per well; ≥5 wells/sample per each experiment); *p<0.05, **p<0.01, † p≥0.05, ANOVA. (B) Immunoprecipitation analysis of the interactions between galectins and mTOR or RagA GTPase. HEK293T cells overexpressing FLAG-tagged galectins were subjected to anti-FLAG immunoprecipitation followed by immunoblotting for endogenous mTOR or RagA. (C) Immunoprecipitation analysis of interactions between Gal8 and mTOR protein complexes in response to GPN treatment. THP-1 cells not treated or treated with 100 μM GPN in full medium for 1 h were subjected to immunoprecipitation with anti-Gal8 antibody, followed by immunoblotting for endogenous RagA, p14, mTOR or Raptor. […] Biotinylated proteins from HEK293T cell expressing APEX2-vector or APEX2-Gal8, after GPN and biotin phenol (BP) treatment were affinity-enriched by binding to streptavidin-beads, and samples were analyzed by immunoblotting analysis for endogenous RagA, p14, mTOR or Raptor. […]

[2] = test system: APEX2-Gal8; experiment: APEX2-Gal8 proximity biotinylation LC/MS/MS proteomic analysis in HEK293T cells; type: cell-based; details: 100 μM GPN 1 h vs full medium
Description: HEK293T cells transfected with pJJiaDEST-APEX2 or pJJiaDEST-APEX2-Gal8 were incubated with 100 μM GPN (Cayman Chemicals) in full medium for 1 h (confluence of cells remained at 70-80%). Cells were next incubated in 500 μM biotin-phenol (AdipoGen) in full medium for the last 30 min of GPN incubation. A 1 min pulse with 1 mM H2O2 at room temperature was stopped with quenching buffer (10 mM sodium ascorbate, 10 mM sodium azide and 5 mM Trolox in Dulbecco's Phosphate Buffered Saline (DPBS)). All samples were washed twice with quenching buffer, and twice with DPBS.
For LC-MS/MS analysis, cell pellets were lysed in 500 μL ice-cold lysis buffer (6 M urea, 0.3 M Nacl, 1 mM EDTA, 1 mM EGTA, 10 mM sodium ascorbate, 10 mM sodium azide, 5 mM Trolox, 1% glycerol and 25 mm Tris/HCl [PH 7.5]) for 30 min by gentle pipetting. Lysates were clarified by centrifugation and protein concentrations determined as above. Streptavidin-coated magnetic beads (Pierce) were washed with lysis buffer. 3 mg of each sample was mixed with 100 μL of streptavidin bead. The suspensions were gently rotated at 4° C. for overnight to bind biotinylated proteins. The flowthrough after enrichment was removed and the beads were washed in sequence with 1 mL IP buffer (150 mM NaCl, 10 mM Tris-HCl pH8.0, 1 mM EDTA, 1 mM EGTA, 1% Triton X-100) twice; 1 mL 1M KCl; 1 mL of 50 mM Na2CO3; 1 mL 2M Urea in 20 mM 1Tris HCl pH8; 1 mL IP buffer. Biotinylated proteins were eluted, 5-10% of the sample processed for Western Blot and 90-95% of the sample processed for mass spectrometry.
Digested peptides were analyzed by LC-MS/MS on a Thermo Scientific Q Exactive Plus Orbitrap Mass spectrometer in conjunction Proxeon Easy-nLC II HPLC (Thermo Scientific) and Proxeon nanospray source. […]
Tandem mass spectra were extracted by Proteome Discoverer version 2.2. […] All MS/MS samples were analyzed using Sequest-HT (XCorr Only)(Thermo Fisher Scientific, San Jose, Calif., USA; in Proteome Discoverer 2.2.0.388). […] Precursor intensity was determined using Proteome Discoverer 2.2 using the Minor Feature detector with the default options. […]

## Gal8: protein of the galectin family encoded by the gene LGALS8; beta-galactoside-binding lectin
[1]
  co-IP with mTOR and RagA: found in co-IPs

## NCC(=O)N[C@@H](Cc1ccccc1)C(=O)Nc1ccc2ccccc2c1 [GPN, glycyl-L-phenylalanine 2-naphththylamide] (HELM PEPTIDE1{G.F.[c1ccc2cc(N[*:1])ccc2c1]}$$$$V2.0)
[2]
  decrease in spectral counts of mTOR proximal to APEX2-Gal8: > 100 fold
  increase in MS signal intensity of peptide precursor ions of LAMTOR1/p18, SLC38A9 and RagA/B: > 100 fold
  increase in spectral counts of SLC38A9 and RagA/B proximal to APEX2-Gal8: > 100 fold
